For five compounds, Kd results are on record in ChEMBL document CHEMBL3991601, “The target landscape of clinical kinase drugs” (Science, 2017).

Calls of active or inactive are those of the source.

Assay [1] has as its target T1, Electron transfer flavoprotein subunit beta (Homo sapiens, UniProt P38117).
T1 sequence (P38117 whole entry): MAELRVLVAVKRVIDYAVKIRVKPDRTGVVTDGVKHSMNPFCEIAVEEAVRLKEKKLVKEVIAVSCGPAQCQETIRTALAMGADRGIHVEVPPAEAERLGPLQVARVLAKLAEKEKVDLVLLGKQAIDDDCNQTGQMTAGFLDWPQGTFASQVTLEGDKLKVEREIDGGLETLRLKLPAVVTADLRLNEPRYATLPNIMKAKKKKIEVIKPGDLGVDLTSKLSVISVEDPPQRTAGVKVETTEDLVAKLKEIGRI

In assay [2] the target is T2, Serine/threonine-protein kinase 3 (Homo sapiens, UniProt Q13188).
T2 sequence (Q13188 whole entry): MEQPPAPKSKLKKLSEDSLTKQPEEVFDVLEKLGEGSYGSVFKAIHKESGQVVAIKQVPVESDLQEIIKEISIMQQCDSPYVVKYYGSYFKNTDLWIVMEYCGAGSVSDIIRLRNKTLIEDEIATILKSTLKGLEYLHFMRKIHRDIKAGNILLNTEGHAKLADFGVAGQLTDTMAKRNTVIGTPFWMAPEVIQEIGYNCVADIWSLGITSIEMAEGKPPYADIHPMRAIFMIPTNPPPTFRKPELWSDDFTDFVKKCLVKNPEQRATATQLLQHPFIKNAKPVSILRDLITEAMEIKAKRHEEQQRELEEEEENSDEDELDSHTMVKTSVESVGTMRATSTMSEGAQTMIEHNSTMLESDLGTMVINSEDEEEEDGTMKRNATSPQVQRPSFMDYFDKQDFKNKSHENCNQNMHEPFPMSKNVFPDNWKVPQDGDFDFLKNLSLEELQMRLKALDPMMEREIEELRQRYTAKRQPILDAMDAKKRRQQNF

For assay [3], the target named is T3, DNA replication licensing factor MCM4 (Homo sapiens, UniProt P33991).
T3 sequence (P33991 whole entry): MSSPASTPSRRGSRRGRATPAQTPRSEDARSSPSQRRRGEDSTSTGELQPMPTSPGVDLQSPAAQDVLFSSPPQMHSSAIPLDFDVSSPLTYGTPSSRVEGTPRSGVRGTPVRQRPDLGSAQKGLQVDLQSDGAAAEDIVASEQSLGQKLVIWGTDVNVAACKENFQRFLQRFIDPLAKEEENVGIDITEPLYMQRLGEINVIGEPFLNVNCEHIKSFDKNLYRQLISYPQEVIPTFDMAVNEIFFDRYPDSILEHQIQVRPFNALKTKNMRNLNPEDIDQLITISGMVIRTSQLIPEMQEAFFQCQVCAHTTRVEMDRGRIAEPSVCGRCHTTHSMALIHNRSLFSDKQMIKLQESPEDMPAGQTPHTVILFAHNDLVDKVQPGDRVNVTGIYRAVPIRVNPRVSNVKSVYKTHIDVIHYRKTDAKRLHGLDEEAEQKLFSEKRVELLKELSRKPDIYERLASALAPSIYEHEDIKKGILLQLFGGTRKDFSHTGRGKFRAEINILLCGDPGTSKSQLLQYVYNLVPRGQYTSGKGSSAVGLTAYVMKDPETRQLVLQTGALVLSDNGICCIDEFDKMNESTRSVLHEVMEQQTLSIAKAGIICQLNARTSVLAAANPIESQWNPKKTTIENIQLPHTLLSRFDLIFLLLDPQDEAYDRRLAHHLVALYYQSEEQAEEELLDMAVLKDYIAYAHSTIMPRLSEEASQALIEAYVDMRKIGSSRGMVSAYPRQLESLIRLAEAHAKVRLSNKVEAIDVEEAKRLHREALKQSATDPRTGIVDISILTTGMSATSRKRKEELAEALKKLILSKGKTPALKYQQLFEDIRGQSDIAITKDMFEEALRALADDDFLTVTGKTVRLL

The target in assay [4] is Mitogen-activated protein kinase 8 (Homo sapiens, UniProt P45983).
For assay [5], the target named is Tyrosine-protein kinase Fyn (Homo sapiens, UniProt P06241).
Assay [6] addresses BMP-2-inducible protein kinase (Homo sapiens, UniProt Q9NSY1).
For assay [7], the target named is STE20-like serine/threonine-protein kinase (Homo sapiens, UniProt Q9H2G2).
The target of assay [8] is T4, Serine/threonine-protein kinase STK11 (Homo sapiens, UniProt Q15831).
T4 sequence (Q15831 whole entry): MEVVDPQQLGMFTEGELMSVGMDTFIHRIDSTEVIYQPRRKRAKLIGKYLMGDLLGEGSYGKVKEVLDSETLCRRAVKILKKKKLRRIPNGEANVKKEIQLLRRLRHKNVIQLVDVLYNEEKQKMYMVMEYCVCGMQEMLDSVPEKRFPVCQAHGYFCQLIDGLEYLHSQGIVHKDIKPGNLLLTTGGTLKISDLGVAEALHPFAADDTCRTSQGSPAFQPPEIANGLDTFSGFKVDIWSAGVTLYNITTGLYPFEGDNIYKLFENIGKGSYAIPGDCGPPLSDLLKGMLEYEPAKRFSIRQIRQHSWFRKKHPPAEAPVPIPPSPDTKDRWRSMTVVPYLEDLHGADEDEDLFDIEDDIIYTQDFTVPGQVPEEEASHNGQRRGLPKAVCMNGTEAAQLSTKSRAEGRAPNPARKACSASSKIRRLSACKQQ

The target of assay [9] is T5, Cytochrome c1, heme protein, mitochondrial (Homo sapiens, UniProt P08574).
T5 sequence (P08574 whole entry): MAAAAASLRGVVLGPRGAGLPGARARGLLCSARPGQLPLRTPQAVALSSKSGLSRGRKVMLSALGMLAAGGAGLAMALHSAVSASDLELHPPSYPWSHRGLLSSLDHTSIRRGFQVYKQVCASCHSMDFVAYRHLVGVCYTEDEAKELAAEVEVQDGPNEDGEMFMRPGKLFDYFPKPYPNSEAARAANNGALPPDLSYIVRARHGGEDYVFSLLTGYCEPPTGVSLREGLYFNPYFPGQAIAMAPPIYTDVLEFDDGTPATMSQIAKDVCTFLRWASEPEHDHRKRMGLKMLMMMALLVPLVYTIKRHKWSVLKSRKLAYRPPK

Assay [10] concerns the target T6, Pyridoxal kinase (Homo sapiens, UniProt O00764).
T6 sequence (O00764 whole entry): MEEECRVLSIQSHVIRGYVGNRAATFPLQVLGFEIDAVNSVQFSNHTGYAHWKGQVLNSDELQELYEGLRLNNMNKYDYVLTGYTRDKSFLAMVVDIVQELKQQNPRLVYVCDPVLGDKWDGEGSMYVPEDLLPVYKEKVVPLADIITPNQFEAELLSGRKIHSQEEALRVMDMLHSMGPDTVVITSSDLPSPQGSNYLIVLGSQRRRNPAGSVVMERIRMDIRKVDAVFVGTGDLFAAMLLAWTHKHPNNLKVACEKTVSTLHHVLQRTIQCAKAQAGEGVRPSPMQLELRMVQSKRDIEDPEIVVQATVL
Note: in the data inactive means no Kd found up to 30 µM.

Chain of STE20-like serine/threonine-protein kinase (Q9H2G2 whole entry): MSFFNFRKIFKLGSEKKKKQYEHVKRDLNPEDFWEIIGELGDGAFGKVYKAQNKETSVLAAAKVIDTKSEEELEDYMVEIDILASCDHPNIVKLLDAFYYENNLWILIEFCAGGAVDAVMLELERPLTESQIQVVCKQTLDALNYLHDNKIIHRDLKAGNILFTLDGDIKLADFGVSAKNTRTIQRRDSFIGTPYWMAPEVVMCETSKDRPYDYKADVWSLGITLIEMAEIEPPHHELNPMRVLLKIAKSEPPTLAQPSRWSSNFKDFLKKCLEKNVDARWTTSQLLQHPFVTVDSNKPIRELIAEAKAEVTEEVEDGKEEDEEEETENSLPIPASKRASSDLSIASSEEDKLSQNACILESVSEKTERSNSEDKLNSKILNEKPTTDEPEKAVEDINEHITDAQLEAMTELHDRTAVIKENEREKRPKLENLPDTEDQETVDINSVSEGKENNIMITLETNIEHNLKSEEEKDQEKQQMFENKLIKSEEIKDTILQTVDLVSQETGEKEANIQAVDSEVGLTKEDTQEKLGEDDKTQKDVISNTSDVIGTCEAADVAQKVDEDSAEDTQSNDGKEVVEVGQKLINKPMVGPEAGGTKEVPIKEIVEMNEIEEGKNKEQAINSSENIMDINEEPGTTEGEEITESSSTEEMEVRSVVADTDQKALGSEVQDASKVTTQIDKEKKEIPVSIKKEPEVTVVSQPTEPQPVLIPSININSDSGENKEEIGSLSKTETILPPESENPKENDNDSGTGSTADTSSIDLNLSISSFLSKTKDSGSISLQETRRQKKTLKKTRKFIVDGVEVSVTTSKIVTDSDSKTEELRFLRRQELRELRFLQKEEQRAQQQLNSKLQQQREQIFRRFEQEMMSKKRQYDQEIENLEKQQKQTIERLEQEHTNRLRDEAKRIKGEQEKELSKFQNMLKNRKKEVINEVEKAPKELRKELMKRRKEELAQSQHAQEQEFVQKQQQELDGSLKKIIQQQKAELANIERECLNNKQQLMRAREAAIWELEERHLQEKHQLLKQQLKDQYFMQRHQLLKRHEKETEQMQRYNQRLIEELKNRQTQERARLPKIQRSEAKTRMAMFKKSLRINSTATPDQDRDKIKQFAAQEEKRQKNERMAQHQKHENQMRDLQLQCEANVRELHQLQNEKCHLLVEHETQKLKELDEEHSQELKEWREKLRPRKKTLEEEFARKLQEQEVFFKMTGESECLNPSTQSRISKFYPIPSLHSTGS
Chain of BMP-2-inducible protein kinase (Q9NSY1 whole entry): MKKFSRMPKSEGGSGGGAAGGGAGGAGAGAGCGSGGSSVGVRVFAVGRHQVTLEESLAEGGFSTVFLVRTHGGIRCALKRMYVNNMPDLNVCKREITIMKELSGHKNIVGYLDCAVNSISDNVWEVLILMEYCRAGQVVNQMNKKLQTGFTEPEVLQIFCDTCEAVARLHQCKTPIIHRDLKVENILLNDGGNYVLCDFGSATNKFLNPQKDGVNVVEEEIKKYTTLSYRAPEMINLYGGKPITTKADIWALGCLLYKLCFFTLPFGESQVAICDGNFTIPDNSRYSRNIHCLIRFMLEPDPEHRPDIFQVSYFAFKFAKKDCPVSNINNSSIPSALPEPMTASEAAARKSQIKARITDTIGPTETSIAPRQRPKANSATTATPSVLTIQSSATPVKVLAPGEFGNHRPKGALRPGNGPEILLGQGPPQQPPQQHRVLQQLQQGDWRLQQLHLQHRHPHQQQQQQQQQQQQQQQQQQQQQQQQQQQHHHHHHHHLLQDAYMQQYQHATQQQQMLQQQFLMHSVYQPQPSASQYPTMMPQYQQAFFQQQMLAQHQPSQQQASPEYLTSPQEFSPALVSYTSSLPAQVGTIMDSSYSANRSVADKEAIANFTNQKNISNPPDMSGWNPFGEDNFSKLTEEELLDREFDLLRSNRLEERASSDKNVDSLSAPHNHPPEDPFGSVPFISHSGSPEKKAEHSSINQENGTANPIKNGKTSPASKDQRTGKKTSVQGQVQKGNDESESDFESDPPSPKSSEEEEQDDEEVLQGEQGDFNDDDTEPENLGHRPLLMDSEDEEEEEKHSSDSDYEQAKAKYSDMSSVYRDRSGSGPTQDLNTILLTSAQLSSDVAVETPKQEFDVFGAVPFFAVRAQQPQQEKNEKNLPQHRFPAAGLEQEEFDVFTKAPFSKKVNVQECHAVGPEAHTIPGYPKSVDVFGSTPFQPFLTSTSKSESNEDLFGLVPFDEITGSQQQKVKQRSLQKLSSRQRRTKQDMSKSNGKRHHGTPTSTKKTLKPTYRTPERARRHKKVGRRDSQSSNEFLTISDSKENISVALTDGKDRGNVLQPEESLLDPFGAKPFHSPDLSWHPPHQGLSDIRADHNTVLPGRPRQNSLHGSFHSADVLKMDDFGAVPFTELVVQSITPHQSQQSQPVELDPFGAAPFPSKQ
Chain of Mitogen-activated protein kinase 8 (P45983 whole entry): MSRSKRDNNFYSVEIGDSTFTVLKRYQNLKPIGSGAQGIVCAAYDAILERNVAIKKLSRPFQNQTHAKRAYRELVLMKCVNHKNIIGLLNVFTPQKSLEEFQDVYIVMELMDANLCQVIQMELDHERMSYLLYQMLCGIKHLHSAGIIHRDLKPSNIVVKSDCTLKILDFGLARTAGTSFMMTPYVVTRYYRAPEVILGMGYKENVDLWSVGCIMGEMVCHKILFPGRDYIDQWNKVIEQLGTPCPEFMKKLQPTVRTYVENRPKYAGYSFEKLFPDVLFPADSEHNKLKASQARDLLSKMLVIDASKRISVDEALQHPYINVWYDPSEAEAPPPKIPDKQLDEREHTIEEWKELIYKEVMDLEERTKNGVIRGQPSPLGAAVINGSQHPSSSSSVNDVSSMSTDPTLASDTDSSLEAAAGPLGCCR
Chain of Tyrosine-protein kinase Fyn (P06241 whole entry): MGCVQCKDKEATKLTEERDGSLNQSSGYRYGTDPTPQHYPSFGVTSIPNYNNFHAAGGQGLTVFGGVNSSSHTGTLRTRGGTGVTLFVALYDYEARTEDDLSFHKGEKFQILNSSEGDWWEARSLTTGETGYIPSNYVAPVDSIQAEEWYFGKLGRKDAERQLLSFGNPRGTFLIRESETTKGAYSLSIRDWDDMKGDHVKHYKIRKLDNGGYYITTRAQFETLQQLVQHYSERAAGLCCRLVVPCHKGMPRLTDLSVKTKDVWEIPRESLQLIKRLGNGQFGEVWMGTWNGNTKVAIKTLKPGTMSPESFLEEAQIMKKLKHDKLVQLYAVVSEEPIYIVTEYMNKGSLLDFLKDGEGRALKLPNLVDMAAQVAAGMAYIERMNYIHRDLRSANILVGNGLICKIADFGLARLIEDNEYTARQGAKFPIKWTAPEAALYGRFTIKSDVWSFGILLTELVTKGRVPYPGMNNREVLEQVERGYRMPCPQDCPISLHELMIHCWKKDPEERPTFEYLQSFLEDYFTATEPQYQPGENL

Take `COc1cc(Nc2ncc(F)c(Nc3ccc4c(n3)N(COP(=O)(O)O)C(=O)C(C)(C)O4)n2)cc(OC)c1OC` [FOSTAMATINIB]: the Kd (commonly the free concentration of one partner at which half of the binding sites on the other are occupied at equilibrium, for simple one-to-one binding) was > 30 µM (inactive) in assay [1]; > 30 µM (inactive) in [2]; > 30 µM (inactive) in [3]; 2.01 µM (active) in assay [4]; > 30 µM (inactive) in [5]; > 30 µM (inactive) in [6]. In addition, the Kd in assay [7], in [8], in [9] and in [10] was > 30 µM (inactive) each time.
Take `NC[C@@](O)(c1ccc(Cl)cc1)c1ccc(-c2cn[nH]c2)cc1` [AT-13148]: the Kd in assay [1], in [2], in assay [3], in assay [4], in [5] and in assay [6] was > 30 µM (inactive) each time. The Kd in assay [7], in [8], in assay [9] and in [10] was > 30 µM (inactive) in each case.
For `O=S(=O)(c1cccc2c(O)nccc12)N1CCCNCC1` [HYDROXYFASUDIL], the Kd in [1], in assay [2], in assay [3], in assay [4], in assay [5] and in [6] was > 30 µM (inactive) throughout. Further, the Kd in [7], in [8], in [9] and in [10] was > 30 µM (inactive) each time.
`O=C(O)c1ccc2c(c1)nc(Nc1cccc(Cl)c1)c1ccncc12` [SILMITASERTIB]: the Kd in assay [1], in assay [2], in [3], in [4], in assay [5] and in assay [6] was > 30 µM (inactive) in each case. Also, the dissociation constant (Kd) in [7] is 0.22 µM (active); in assay [8], > 30 µM (inactive); in [9], > 30 µM (inactive); in assay [10], > 30 µM (inactive).
With `CCc1nc(C(N)=O)c(Nc2ccc(N3CCC(N4CCN(C)CC4)CC3)c(OC)c2)nc1NC1CCOCC1` [GILTERITINIB], the Kd in assay [1] is > 30 µM (inactive); in [2] it was > 30 µM (inactive); in assay [3], > 30 µM (inactive); in assay [4], 0.736 µM (active); in assay [5], > 30 µM (inactive); in assay [6], 0.046 µM (active). Besides, the Kd is 0.068 µM (active) in assay [7], > 30 µM (inactive) in [8], 0.202 µM in assay [9] and > 30 µM (inactive) in [10].
